Tests used:
[1] = target: T1, Androgen receptor (Homo sapiens, UniProt P10275); assay: Displacement of [3H]DHT from AR in human MDA-MB-453 cells
T1 sequence (P10275 whole entry): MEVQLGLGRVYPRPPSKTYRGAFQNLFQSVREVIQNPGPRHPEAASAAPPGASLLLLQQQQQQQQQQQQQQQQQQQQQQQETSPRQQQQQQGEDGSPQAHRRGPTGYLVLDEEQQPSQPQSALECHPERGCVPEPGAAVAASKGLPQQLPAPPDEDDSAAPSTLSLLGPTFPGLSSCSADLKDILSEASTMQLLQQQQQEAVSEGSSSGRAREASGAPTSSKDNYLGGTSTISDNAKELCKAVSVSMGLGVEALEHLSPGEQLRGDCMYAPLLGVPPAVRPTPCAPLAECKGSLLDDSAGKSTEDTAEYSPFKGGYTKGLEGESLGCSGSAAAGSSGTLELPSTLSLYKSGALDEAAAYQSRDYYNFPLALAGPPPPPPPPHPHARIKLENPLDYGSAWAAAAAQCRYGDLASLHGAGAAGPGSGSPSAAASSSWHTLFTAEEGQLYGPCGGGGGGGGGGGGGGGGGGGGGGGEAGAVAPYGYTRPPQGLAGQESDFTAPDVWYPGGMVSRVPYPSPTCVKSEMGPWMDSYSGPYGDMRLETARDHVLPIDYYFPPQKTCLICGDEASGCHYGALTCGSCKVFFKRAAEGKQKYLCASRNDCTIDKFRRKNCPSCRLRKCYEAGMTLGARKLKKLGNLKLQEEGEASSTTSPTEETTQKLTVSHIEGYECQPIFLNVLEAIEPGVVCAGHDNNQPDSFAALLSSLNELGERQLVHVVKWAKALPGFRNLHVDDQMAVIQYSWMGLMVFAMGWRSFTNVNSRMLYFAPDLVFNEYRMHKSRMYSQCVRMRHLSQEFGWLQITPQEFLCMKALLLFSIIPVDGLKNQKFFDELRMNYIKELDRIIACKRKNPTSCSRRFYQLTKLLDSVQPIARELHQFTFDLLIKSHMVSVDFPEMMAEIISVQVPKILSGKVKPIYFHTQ

[2] = test system: MDA-MB-435; assay: Cytotoxicity against human MDA-MB-435 cells assessed as inhibition of DHT-induced cell growth at 5 uM; type: functional
[3] = test system: LNCaP; assay: Cytotoxicity against human LNCAP cells assessed as inhibition of DHT-induced cell growth at 5 uM; type: functional
[4] = target: T1, Androgen receptor
Description: Antagonist activity at human wild type AR expressed in human MDA-MB-435 cells by transactivation assay

[5] = target: T1, Androgen receptor; remark: listed apart in the source
Description: Antagonist activity at wild type human AR expressed in human LNCAP cells by transactivation assay

[6] = test system: Rattus norvegicus; assay: Effect on immature rat prostate weight in rat assessed as ratio of weight of seminal vesicles to full body weight at 30 mg/kg, po qd for 3 days relative to control; type: functional, Prostate gland
[7] = test system: Rattus norvegicus; assay: Effect on immature rat prostate weight in rat assessed as ratio of weight of seminal vesicles to full body weight at 1 mg/kg, po qd for 3 days relative to control; type: functional, Prostate gland
[8] = Metabolic stability in human liver microsomes assessed as compound remaining at 3 uM after 10 mins; type: ADME, Microsome; details: read-out: Activity
[9] = Metabolic stability in rat liver microsomes assessed as compound remaining at 3 uM after 10 mins; type: ADME, Microsome; details: read-out: Activity
[10] = Metabolic stability in mouse liver microsomes assessed as compound remaining at 3 uM after 10 mins; type: ADME, Microsome; details: read-out: Activity

C[C@]12CN(S(=O)(=O)c3ccc(F)cc3)C[C@](C)(O1)[C@@H]1C(=O)N(c3ccc(C#N)c(C(F)(F)F)c3)C(=O)[C@@H]12
Ki [1]: 32 nM | inhibition at 5 µM [2]: 100% | inhibition at 5 µM [3]: 95% | IC50 [4]: 54 nM | IC50 [5]: 685 nM

C[C@]12CNC[C@](C)(O1)[C@@H]1C(=O)N(c3ccc(C#N)c(C(F)(F)F)c3)C(=O)[C@@H]12
Ki [1]: 21 nM | inhibition at 5 µM [2]: 98% | inhibition at 5 µM [3]: 20% | IC50 [4]: 128 nM | IC50 [5]: > 5000 nM

CCCN1C[C@@]2(C)O[C@@](C)(C1)[C@@H]1C(=O)N(c3ccc(C#N)c(C(F)(F)F)c3)C(=O)[C@@H]12
Ki [1]: 14 nM | inhibition at 5 µM [2]: 99% | inhibition at 5 µM [3]: 98% | IC50 [4]: 14 nM | IC50 [5]: 25 nM

CCC(=O)N1C[C@@]2(C)O[C@@](C)(C1)[C@@H]1C(=O)N(c3ccc(C#N)c(C(F)(F)F)c3)C(=O)[C@@H]12
Ki [1]: 84 nM | inhibition at 5 µM [2]: 95% | inhibition at 5 µM [3]: 91% | IC50 [4]: 129 nM | IC50 [5]: 549 nM

CC(C)C(=O)N1C[C@@]2(C)O[C@@](C)(C1)[C@@H]1C(=O)N(c3ccc(C#N)c(C(F)(F)F)c3)C(=O)[C@@H]12
Ki [1]: 39 nM | inhibition at 5 µM [2]: 98% | inhibition at 5 µM [3]: 72% | IC50 [4]: 215 nM | IC50 [5]: 1610 nM

C[C@]12CN(C(=O)C3CC3)C[C@](C)(O1)[C@@H]1C(=O)N(c3ccc(C#N)c(C(F)(F)F)c3)C(=O)[C@@H]12
Ki [1]: 36 nM | inhibition at 5 µM [2]: 99% | inhibition at 5 µM [3]: 95% | IC50 [5]: 404 nM

C[C@]12CN(C(=O)c3ccccc3)C[C@](C)(O1)[C@@H]1C(=O)N(c3ccc(C#N)c(C(F)(F)F)c3)C(=O)[C@@H]12
Ki [1]: 23 nM | inhibition at 5 µM [2]: 99% | inhibition at 5 µM [3]: 98% | IC50 [4]: 54 nM | IC50 [5]: 177 nM

CC(C)NC(=O)N1C[C@@]2(C)O[C@@](C)(C1)[C@@H]1C(=O)N(c3ccc(C#N)c(C(F)(F)F)c3)C(=O)[C@@H]12
Ki [1]: 98 nM | inhibition at 5 µM [2]: 88% | inhibition at 5 µM [3]: 52% | IC50 [4]: 876 nM | IC50 [5]: 4600 nM

C[C@]12CN(C(=O)Nc3ccccc3)C[C@](C)(O1)[C@@H]1C(=O)N(c3ccc(C#N)c(C(F)(F)F)c3)C(=O)[C@@H]12
Ki [1]: 40 nM | inhibition at 5 µM [2]: 99% | inhibition at 5 µM [3]: 98% | IC50 [4]: 16 nM | IC50 [5]: 123 nM

CCOC(=O)N1C[C@@]2(C)O[C@@](C)(C1)[C@@H]1C(=O)N(c3ccc(C#N)c(C(F)(F)F)c3)C(=O)[C@@H]12
Ki [1]: 5.7 nM | inhibition at 5 µM [2]: 99% | inhibition at 5 µM [3]: 93% | IC50 [4]: 65 nM | IC50 [5]: 590 nM

CCCOC(=O)N1C[C@@]2(C)O[C@@](C)(C1)[C@@H]1C(=O)N(c3ccc(C#N)c(C(F)(F)F)c3)C(=O)[C@@H]12
Ki [1]: 6.6 nM | inhibition at 5 µM [2]: 99% | inhibition at 5 µM [3]: 99% | IC50 [4]: 9.3 nM | IC50 [5]: 54 nM

C[C@]12CN(C(=O)Nc3ccc(F)cc3)C[C@](C)(O1)[C@@H]1C(=O)N(c3ccc(C#N)c(C(F)(F)F)c3)C(=O)[C@@H]12
Ki [1]: 29 nM | inhibition at 5 µM [2]: 99% | inhibition at 5 µM [3]: 98% | IC50 [4]: 39 nM | IC50 [5]: 104 nM

C[C@]12CN(S(C)(=O)=O)C[C@](C)(O1)[C@@H]1C(=O)N(c3ccc(C#N)c(C(F)(F)F)c3)C(=O)[C@@H]12
Ki [1]: 56 nM | inhibition at 5 µM [2]: 99% | inhibition at 5 µM [3]: 61% | IC50 [4]: 205 nM | IC50 [5]: 3510 nM

CCS(=O)(=O)N1C[C@@]2(C)O[C@@](C)(C1)[C@@H]1C(=O)N(c3ccc(C#N)c(C(F)(F)F)c3)C(=O)[C@@H]12
Ki [1]: 16 nM | inhibition at 5 µM [2]: 99% | inhibition at 5 µM [3]: 90% | IC50 [4]: 85 nM | IC50 [5]: 600 nM

C[C@]12CN(S(=O)(=O)c3ccccc3)C[C@](C)(O1)[C@@H]1C(=O)N(c3ccc(C#N)c(C(F)(F)F)c3)C(=O)[C@@H]12
Ki [1]: 12 nM | inhibition at 5 µM [2]: 99% | inhibition at 5 µM [3]: 91% | IC50 [4]: 99 nM | IC50 [5]: 979 nM

C[C@]12CN(S(=O)(=O)c3ccccn3)C[C@](C)(O1)[C@@H]1C(=O)N(c3ccc(C#N)c(C(F)(F)F)c3)C(=O)[C@@H]12
Ki [1]: 93 nM | inhibition at 5 µM [2]: 98% | inhibition at 5 µM [3]: 80% | IC50 [4]: 170 nM | IC50 [5]: 1240 nM

C[C@]12CN(c3cccc(S(N)(=O)=O)c3)C[C@](C)(O1)[C@@H]1C(=O)N(c3ccc(C#N)c(C(F)(F)F)c3)C(=O)[C@@H]12
Ki [1]: 22 nM | inhibition at 5 µM [2]: 99% | inhibition at 5 µM [3]: 94% | IC50 [4]: 37 nM | IC50 [5]: 337 nM

C[C@]12CN(c3cccc(S(C)(=O)=O)c3)C[C@](C)(O1)[C@@H]1C(=O)N(c3ccc(C#N)c(C(F)(F)F)c3)C(=O)[C@@H]12
Ki [1]: 9.4 nM | inhibition at 5 µM [2]: 96% | inhibition at 5 µM [3]: 98% | Activity [6]: 28% | Activity [7]: 37% | remaining at 10 min, 3 µM [8]: 76% | remaining at 10 min, 3 µM [9]: 100% | remaining at 10 min, 3 µM [10]: 92% | IC50 [4]: 7.4 nM | IC50 [5]: 150 nM

C[C@]12CN(c3cc(Cl)ncn3)C[C@](C)(O1)[C@@H]1C(=O)N(c3ccc(C#N)c(C(F)(F)F)c3)C(=O)[C@@H]12
Ki [1]: 3.5 nM | inhibition at 5 µM [2]: 98% | inhibition at 5 µM [3]: 100% | IC50 [4]: 11 nM

C[C@]12CN(c3ncccn3)C[C@](C)(O1)[C@@H]1C(=O)N(c3ccc(C#N)c(C(F)(F)F)c3)C(=O)[C@@H]12
Ki [1]: 6.1 nM | inhibition at 5 µM [2]: 99% | inhibition at 5 µM [3]: 97% | IC50 [4]: 31 nM | IC50 [5]: 377 nM

C[C@]12CN(c3cccc(C(N)=O)c3)C[C@](C)(O1)[C@@H]1C(=O)N(c3ccc(C#N)c(C(F)(F)F)c3)C(=O)[C@@H]12
Ki [1]: 9 nM | inhibition at 5 µM [2]: 98% | inhibition at 5 µM [3]: 99% | IC50 [5]: 127 nM

CN1C(=O)[C@]2(C)O[C@](C)(C1=O)[C@H]1C(=O)N(c3ccc(C#N)c(C(F)(F)F)c3)C(=O)[C@H]12
Ki [1]: 20 nM | IC50 [4]: 2140 nM | IC50 [5]: > 5000 nM

C[C@]12O[C@](C)(C(=O)N(CC3CC3)C1=O)[C@H]1C(=O)N(c3ccc(C#N)c(C(F)(F)F)c3)C(=O)[C@H]12
Ki [1]: 50 nM | IC50 [4]: 873 nM | IC50 [5]: 3330 nM

CC(C)OC(=O)N1C[C@@]2(C)O[C@@](C)(C1)[C@@H]1C(=O)N(c3ccc(C#N)c(C(F)(F)F)c3)C(=O)[C@@H]12
Ki [1]: 11 nM | inhibition at 5 µM [2]: 99% | inhibition at 5 µM [3]: 99% | IC50 [4]: 12 nM | IC50 [5]: 69 nM

CC(C)[N+]1([O-])C(=O)[C@]2(C)O[C@](C)(C1=O)[C@H]1C(=O)N(c3ccc(C#N)c(C(F)(F)F)c3)C(=O)[C@H]12 (some centres not stated)
Ki [1]: 3600 nM | inhibition at 5 µM [2]: 58% | IC50 [4]: 3900 nM | IC50 [5]: 5000 nM

CCNC(=O)N1C[C@@]2(C)O[C@@](C)(C1)[C@@H]1C(=O)N(c3ccc(C#N)c(C(F)(F)F)c3)C(=O)[C@@H]12
Ki [1]: 176 nM | inhibition at 5 µM [2]: 97% | inhibition at 5 µM [3]: 76% | IC50 [4]: 313 nM | IC50 [5]: 1460 nM

CC(C)N1C(=O)[C@]2(C)O[C@](C)(C1=O)[C@H]1C(=O)N(c3ccc(C#N)c(C(F)(F)F)c3)C(=O)[C@H]12
Ki [1]: 14 nM | inhibition at 5 µM [2]: 99% | inhibition at 5 µM [3]: 99% | IC50 [4]: 32 nM | IC50 [5]: 125 nM

C[C@]12CN(O)C[C@](C)(O1)[C@@H]1C(=O)N(c3ccc(C#N)c(C(F)(F)F)c3)C(=O)[C@@H]12
Ki [1]: 37 nM | inhibition at 5 µM [2]: 97% | inhibition at 5 µM [3]: 79% | IC50 [4]: 182 nM | IC50 [5]: 1280 nM

CON1C[C@@]2(C)O[C@@](C)(C1)[C@@H]1C(=O)N(c3ccc(C#N)c(C(F)(F)F)c3)C(=O)[C@@H]12
Ki [1]: 3.7 nM | inhibition at 5 µM [2]: 99% | inhibition at 5 µM [3]: 72% | IC50 [4]: 24 nM | IC50 [5]: 179 nM

Reference: ChEMBL document CHEMBL1208719, “Design and synthesis of 4-[3,5-dioxo-11-oxa-4,9-diazatricyclo[5.3.1.0(2,6)]undec-4-yl]-2-trifluoromethyl-benzonitriles as androgen receptor antagonists” (Bioorg Med Chem Lett, 2010)
